One assay has as its system humans. The note with it: after a single treatment; cited from earlier work.
Assay [1] relates to other uptake 2 transporters (OCT1, OCT3, PMAT). Description: Fluorescent substrate uptake inhibition at the other uptake 2 transporters. The format is cell-based.
The target in the next assay is hVMAT2 (Homo sapiens, UniProt Q05940). The assay is described as follows: FFN206 fluorescent substrate uptake inhibition in hVMAT2-HEK cells. Particulars: ratio of IC50 values, cell-based fluorometry. Format: cell-based.
A further assay addresses T1, MAO A (Homo sapiens, UniProt P21397).
T1 sequence (P21397 1-527): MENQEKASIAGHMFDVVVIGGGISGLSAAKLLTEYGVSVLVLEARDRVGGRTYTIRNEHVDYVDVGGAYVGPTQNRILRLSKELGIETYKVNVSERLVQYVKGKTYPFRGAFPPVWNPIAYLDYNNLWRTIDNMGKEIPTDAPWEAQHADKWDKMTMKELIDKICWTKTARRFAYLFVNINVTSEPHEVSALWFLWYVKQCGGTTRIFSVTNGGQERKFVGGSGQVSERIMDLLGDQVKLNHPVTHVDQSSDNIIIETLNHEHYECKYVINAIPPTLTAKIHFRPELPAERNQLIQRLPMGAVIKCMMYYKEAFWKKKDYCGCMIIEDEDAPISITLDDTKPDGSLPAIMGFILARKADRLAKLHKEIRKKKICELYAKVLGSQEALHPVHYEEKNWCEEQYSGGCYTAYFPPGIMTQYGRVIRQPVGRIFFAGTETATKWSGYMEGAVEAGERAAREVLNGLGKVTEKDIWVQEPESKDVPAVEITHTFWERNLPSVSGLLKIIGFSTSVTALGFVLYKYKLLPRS
Description: MAO A activity. Format: biochemical. The note with it: Figure S16.

Assay [2] has as its target SERT (Rattus norvegicus, UniProt P31652). Description: [3H]5-HT release from rat brain synaptosomes via SERT. Format: biochemical. Particulars: rat brain synaptosomes.
The target of assay [3] is SERT (Mus musculus, UniProt Q60857). The assay is described as follows: SERTlight two-photon imaging of SERT function in acute mouse brain slices. The format is cell-based. The note with it: 2 μM for 30 minutes, SERTlight 10 μM; SNpr, DS, SSp2/3.
In the next assay the target is mouse VMAT2 (mVMAT2) (Mus musculus, UniProt Q8BRU6). Description: FFN200 two-photon imaging of VMAT2 function in acute mouse brain slices. Format: cell-based. The note with it: 2 μM for 30 minutes, FFN200 10 μM, dorsal striatum.
The next assay has as its target VMAT2 (Rattus norvegicus, UniProt Q01827). Description: [3H]5-HT release from rat brain synaptic vesicles via VMAT2. Format: biochemical.
For another assay, the target named is rat SERT (rSERT) (Rattus norvegicus, UniProt P31652). The note with it: cited from earlier work.

Entries after “also recorded” stand apart in the source; their conditions may differ. Some results are limits rather than exact numbers.

SERT (Rattus norvegicus, UniProt P31652), sequence (P31652 whole entry): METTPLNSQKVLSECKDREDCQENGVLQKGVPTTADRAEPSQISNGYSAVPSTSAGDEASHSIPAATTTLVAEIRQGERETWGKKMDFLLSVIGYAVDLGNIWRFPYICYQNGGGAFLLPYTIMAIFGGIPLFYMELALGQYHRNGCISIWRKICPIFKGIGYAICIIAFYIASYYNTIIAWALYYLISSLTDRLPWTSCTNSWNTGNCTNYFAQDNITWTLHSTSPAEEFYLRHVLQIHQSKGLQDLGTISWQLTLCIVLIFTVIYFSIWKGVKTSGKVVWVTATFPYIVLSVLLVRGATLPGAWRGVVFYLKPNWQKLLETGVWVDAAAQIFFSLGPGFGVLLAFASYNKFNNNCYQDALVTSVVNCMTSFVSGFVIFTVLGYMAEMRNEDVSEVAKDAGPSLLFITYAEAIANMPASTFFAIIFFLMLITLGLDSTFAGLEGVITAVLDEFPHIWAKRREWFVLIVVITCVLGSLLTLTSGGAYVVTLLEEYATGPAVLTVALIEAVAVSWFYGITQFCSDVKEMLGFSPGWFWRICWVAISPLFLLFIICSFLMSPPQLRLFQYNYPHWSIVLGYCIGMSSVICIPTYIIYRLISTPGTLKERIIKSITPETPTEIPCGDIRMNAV
VMAT2, sequence (Q01827 whole entry): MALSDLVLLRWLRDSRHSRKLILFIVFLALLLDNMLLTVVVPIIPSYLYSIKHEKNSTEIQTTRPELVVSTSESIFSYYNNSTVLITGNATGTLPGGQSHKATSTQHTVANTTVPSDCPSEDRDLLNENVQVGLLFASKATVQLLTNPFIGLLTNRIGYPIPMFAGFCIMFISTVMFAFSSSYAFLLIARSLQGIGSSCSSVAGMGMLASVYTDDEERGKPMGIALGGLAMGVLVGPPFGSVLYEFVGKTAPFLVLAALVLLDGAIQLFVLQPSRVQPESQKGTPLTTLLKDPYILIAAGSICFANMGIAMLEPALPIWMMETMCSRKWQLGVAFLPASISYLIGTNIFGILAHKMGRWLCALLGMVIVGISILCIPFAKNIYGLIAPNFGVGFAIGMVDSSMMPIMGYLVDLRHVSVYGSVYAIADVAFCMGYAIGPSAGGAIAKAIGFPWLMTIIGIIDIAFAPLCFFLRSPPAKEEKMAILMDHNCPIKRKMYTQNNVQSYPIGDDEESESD
SERT (Mus musculus, UniProt Q60857), sequence (Q60857 whole entry): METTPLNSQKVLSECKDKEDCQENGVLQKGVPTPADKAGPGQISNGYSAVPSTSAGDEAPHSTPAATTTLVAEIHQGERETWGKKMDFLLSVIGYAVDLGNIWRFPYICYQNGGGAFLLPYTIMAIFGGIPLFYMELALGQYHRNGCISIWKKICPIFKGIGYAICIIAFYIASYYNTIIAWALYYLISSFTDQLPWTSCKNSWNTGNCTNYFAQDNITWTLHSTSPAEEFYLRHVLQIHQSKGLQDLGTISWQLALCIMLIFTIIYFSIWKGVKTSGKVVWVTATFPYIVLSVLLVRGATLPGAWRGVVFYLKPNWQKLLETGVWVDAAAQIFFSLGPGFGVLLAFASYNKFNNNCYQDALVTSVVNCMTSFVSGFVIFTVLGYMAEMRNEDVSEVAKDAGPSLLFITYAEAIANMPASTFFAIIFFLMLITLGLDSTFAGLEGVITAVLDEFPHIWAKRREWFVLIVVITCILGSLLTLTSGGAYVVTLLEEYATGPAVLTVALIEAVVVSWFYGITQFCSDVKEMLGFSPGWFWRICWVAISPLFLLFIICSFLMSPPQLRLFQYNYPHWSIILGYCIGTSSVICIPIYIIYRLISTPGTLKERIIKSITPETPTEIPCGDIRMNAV
mouse VMAT2 (mVMAT2), sequence (Q8BRU6 whole entry): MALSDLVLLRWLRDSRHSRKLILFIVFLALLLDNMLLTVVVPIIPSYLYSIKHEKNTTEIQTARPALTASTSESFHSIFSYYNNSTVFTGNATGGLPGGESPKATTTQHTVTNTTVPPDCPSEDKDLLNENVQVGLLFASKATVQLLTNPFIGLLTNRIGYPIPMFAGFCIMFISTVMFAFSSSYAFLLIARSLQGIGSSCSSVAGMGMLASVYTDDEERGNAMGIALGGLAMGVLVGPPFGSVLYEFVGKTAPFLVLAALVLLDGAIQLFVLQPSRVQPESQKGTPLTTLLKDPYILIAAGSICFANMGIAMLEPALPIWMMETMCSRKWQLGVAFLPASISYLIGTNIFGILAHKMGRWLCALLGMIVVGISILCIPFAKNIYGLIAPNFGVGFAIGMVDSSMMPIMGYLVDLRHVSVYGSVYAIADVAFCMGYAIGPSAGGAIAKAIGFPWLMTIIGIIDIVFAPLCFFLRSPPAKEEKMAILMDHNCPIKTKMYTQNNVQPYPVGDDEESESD
hVMAT2, sequence (Q05940 whole entry): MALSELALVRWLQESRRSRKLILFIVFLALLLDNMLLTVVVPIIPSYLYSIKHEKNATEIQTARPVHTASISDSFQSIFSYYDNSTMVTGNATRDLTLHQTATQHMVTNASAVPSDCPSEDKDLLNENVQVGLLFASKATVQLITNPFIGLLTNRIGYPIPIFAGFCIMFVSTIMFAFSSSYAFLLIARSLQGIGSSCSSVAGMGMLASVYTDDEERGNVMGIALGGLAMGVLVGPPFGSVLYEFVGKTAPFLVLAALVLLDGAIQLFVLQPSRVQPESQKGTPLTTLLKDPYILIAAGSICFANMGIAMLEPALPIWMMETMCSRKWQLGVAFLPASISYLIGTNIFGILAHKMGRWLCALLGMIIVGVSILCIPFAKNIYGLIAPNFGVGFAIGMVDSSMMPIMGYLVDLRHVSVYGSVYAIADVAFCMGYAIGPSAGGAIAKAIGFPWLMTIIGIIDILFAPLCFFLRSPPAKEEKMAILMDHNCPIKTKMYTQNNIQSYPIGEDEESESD
rat SERT (rSERT), sequence (P31652 whole entry): as the sequence (P31652 whole entry) above

Turning to ibogaine, the Remission in the assay with humans was 80%. For the same substance, in [1], the “Inhibition at the other uptake 2 transporters examined” value was “no inhibition below 10 μM”. The “Selectivity hVMAT2 over hSERT” value at hVMAT2 is given as “seven-fold more potent at VMAT2”. Moreover, the “Activity at MAO A” value at MAO A is “no activity”. Further, the “[3H]5-HT release from preloaded synaptosomes (qualitative)” value at SERT [2] was “No [^3H]5-HT release was observed”. Also, the “[3H]5-HT Release % Emax via SERT” value at SERT [2] (n = 3) was under 30%. For the same substance, the “[3H]5-HT Release EC50 ± SD via SERT” value at SERT [2] (n = 3, active releaser: EC50 < 10 μM and Emax > 30%) is “inactive”. Moreover, at SERT [3], the “Effect on SERTlight labeling of 5-HT axons” value is recorded as “did not alter probe uptake; also recorded: had no effect on SERTlight labeling”. For the same substance, on mouse VMAT2 (mVMAT2), the “Effect on FFN200 uptake / punctate labeling” value is on record as “strong inhibitory effects; also recorded: completely inhibited FFN200 uptake”. For the same substance, the “Concentration at which [3H]5-HT release exceeds Emax of 30%” value at VMAT2 (rat brain synaptic vesicles) was over 10 µM. For the same substance, the “[3H]5-HT Release % Emax via VMAT2” value on VMAT2 (rat brain vesicular fraction, 5-HT control set as Emax = 100%) was under 30%. Further, at rat SERT (rSERT), the “Ratio of binding to uptake inhibitory constants at SERT” value is given as ~ 1.

Values taken from article PMC13600255 (Journal of the American Chemical Society, 2025).
